From patent US8541427B2, “Phenyl-substituted 2-imino-3-methyl pyrrolo pyrimidinone compounds as BACE-1 inhibitors, compositions, and their use” (Merck, Sharp & Dohme, Corp., priority 2008, dated 2013)
Read-outs that look alike come from different tables or passages of the source.

Assays:
[1] = molecular target: BACE1 (Aβ40 in HEK293-APPswe/lon cells) (Homo sapiens (Human), UniProt P56817); test: BACE Inhibitor Whole Cell IC50 Determination Using HEK293-APPswe/lon Cells (Aβ40); type: cell-based; conditions: 4 hours
[2] = molecular target: CYP3A4 (Homo sapiens (Human), UniProt P08684); test: CYP Inhibition Assay, CYP3A4; type: in vitro ADME; conditions: human liver microsomes;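 further: CYP probe substrate held near its Km, inhibition judged from metabolite formation quantified by LC-MS/MS against a standard curve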
[3] = molecular target: human liver Cathepsin D (Homo sapiens (Human), UniProt P07339); test: Human Cathepsin D FRET Assay; type: biochemical; conditions: selectivity with respect to Cathepsin D vs BACE1
[4] = molecular target: hERG (Homo sapiens (Human), UniProt Q12809); test: hERG screening, IonWorks Quattro (hERG L929 cells); type: cell-based; conditions: L929 cells expressing hERG; for inhibition at 5 min, 1 uM: read-out: HERG Ionworks % Inhib 1 uM; for inhibition at 5 min, 10 uM: read-out: HERG Ionworks % Inhib 10 uM
[5] = molecular target: CYP2C9 (Homo sapiens (Human), UniProt P11712); test: CYP Inhibition Assay, CYP2C9; type: in vitro ADME; conditions: human liver microsomes;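 further: probe substrate held close to its Km, with metabolite formation quantified by LC-MS/MS against a calibration curve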
[6] = molecular target: soluble human BACE1 catalytic domain (Homo sapiens (Human), UniProt P56817); test: BACE1 HTRF FRET Assay; type: biochemical; conditions: Ki calculated from IC50 with Cheng-Prusoff equation;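 further: cleavage of a quenched APP Swedish mutant peptide (QSY7 quencher, Europium donor) measured as rise in 620 nm fluorescence after 1.5 h at 30 °C, inhibition suppresses signal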
[7] = molecular target: CYP2D6 (Homo sapiens (Human), UniProt P10635); test: CYP Inhibition Assay, CYP2D6; type: in vitro ADME; conditions: human liver microsomes
[8] = 30 min pre-incubation with NADPH, read-out: CYP 3A4 IC50 pre
[9] = co-incubation, read-out: CYP 3A4 IC50 co
[10] = 30 min pre-incubation with NADPH, read-out: CYP 2C9 IC50 pre
[11] = co-incubation, read-out: CYP 2C9 IC50 co
[12] = 30 min pre-incubation with NADPH, read-out: CYP 2D6 IC50 pre
[13] = co-incubation, read-out: CYP 2D6 IC50 co

Chain of soluble human BACE1 catalytic domain (P56817 75-416): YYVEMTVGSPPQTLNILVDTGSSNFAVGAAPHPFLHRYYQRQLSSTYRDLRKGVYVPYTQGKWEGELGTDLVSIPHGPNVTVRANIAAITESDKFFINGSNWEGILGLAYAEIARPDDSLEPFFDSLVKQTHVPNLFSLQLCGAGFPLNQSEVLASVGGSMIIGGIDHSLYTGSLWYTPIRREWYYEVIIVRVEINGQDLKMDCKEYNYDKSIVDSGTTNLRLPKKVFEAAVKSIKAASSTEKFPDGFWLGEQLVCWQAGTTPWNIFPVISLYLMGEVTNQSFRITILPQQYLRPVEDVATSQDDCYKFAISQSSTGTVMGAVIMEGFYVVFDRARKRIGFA
Chain of hERG (Q12809 whole entry): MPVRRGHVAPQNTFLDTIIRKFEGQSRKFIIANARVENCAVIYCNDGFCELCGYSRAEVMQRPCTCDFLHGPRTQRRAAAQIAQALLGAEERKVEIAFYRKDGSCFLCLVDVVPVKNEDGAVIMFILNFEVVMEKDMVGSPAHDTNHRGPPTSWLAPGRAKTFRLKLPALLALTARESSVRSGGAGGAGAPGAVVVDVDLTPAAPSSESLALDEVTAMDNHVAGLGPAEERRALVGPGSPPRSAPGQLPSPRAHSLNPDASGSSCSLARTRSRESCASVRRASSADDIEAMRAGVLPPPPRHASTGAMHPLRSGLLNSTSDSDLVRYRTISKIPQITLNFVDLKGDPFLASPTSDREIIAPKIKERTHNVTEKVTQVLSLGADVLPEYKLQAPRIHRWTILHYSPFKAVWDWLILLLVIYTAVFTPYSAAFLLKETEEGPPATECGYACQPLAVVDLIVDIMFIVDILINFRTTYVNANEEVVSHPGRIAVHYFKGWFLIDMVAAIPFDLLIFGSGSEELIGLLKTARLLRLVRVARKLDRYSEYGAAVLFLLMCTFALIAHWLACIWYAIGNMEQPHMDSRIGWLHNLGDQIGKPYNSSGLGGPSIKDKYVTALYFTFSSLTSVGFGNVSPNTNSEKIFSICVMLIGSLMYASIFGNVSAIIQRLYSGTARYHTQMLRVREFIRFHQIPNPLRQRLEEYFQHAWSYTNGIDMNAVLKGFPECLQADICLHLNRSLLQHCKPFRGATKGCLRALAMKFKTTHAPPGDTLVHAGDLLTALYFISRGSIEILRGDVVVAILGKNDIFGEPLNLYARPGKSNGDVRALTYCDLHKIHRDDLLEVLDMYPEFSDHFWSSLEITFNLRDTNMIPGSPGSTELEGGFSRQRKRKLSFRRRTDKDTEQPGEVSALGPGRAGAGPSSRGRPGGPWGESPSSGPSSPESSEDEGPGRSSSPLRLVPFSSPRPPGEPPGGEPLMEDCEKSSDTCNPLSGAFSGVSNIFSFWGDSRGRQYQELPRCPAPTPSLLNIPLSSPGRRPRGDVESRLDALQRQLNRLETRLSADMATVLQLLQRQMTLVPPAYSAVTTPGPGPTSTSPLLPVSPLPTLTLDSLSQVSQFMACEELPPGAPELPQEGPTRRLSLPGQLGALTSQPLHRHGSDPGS
Chain of CYP2C9 (P11712 whole entry, the tested form may be a part): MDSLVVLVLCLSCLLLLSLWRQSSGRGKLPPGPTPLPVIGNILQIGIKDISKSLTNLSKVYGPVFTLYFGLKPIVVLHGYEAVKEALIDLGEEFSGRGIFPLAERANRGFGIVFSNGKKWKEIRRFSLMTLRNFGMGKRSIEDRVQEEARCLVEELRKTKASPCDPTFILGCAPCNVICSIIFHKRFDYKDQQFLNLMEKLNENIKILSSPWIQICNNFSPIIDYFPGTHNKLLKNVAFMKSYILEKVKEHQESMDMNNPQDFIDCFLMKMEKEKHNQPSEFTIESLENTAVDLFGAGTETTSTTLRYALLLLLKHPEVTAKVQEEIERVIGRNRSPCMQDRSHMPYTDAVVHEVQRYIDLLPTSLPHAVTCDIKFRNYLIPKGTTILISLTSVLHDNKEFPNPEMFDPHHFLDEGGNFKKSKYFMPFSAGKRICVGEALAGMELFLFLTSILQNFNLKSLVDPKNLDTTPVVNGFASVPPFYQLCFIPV
Chain of human liver Cathepsin D (P07339 65-412): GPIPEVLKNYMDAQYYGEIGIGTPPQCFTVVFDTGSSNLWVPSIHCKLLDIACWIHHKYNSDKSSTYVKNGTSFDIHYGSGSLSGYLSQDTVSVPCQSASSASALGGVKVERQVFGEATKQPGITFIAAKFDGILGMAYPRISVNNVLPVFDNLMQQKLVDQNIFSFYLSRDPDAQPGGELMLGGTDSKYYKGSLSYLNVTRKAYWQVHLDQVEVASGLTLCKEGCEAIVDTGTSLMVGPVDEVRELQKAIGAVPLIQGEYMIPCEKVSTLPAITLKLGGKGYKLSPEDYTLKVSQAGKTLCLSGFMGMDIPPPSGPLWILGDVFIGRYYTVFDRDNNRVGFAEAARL
Chain of human liver Cathepsin D (P07339 169-412): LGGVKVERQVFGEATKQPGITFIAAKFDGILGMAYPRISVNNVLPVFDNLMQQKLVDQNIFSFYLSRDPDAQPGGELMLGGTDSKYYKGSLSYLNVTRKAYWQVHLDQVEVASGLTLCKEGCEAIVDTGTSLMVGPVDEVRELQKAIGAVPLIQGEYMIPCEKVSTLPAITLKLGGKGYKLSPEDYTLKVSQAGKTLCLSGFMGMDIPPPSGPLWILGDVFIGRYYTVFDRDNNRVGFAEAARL
Chain of BACE1 (Aβ40 in HEK293-APPswe/lon cells) (P56817 46-501): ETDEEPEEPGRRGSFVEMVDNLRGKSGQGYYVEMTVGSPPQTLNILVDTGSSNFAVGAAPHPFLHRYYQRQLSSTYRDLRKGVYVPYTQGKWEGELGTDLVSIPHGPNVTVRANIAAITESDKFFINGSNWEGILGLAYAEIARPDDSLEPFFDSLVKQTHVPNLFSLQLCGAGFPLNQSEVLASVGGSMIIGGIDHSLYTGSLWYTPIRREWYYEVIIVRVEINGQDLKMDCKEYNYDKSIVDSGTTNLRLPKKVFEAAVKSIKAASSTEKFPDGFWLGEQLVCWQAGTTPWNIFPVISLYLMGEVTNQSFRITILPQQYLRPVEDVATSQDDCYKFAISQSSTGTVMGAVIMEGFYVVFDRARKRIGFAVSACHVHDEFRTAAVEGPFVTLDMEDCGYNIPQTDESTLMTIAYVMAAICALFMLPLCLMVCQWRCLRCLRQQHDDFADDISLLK
Chain of CYP2D6 (P10635 whole entry): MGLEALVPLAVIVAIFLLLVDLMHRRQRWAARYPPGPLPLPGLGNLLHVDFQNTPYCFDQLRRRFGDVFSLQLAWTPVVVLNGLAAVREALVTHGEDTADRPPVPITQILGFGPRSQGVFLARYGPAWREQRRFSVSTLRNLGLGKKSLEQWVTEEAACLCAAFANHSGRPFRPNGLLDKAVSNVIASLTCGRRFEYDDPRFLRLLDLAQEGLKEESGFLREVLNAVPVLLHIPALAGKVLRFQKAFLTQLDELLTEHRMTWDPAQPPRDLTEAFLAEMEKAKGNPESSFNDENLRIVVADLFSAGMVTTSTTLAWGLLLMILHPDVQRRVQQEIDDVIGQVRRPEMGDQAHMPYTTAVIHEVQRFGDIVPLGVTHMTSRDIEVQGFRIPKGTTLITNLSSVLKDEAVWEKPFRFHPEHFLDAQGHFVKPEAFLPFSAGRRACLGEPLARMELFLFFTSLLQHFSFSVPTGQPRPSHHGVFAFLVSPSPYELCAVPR
Chain of CYP3A4 (P08684 whole entry): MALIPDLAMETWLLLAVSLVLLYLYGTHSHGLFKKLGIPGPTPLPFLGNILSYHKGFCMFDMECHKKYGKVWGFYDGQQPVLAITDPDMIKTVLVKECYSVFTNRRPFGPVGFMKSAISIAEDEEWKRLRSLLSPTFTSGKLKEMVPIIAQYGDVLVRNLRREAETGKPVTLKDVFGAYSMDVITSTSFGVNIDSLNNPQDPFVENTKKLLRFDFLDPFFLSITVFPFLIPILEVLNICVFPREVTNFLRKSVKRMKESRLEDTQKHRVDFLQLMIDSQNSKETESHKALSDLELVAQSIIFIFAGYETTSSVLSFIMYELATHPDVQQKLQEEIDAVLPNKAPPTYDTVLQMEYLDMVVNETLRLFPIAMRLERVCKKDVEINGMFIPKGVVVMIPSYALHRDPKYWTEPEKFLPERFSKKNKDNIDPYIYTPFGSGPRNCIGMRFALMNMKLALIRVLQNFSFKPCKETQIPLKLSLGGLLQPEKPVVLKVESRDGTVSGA

Structure (SMILES)	IC50 [1]	IC50 [2, 8]	IC50 [2, 9]	CathD Selectivity [3]	inhibition at 5 min, 1 uM [4]	inhibition at 5 min, 10 uM [4]	IC50 [5, 10]	IC50 [5, 11]	Ki [6]	IC50 [7, 12]	IC50 [7, 13]
COc1nc(N2C[C@H]3C(=O)N(C)C(=N)N[C@@]3(c3cc(F)ccc3F)C2)nc(C2CC2)c1F [Example 34]	0.086 µM	> 20 µM	> 20 µM	88	7%	65%	> 20 µM	> 20 µM	0.0056 µM	> 20 µM	> 20 µM
COc1nc(N2C[C@H]3C(=O)N(C)C(=N)N[C@@]3(c3ccc(F)cc3F)C2)nc(CO)c1F [Example 43]	0.021 µM	> 20 µM	> 20 µM	116	6%	27%	> 20 µM	> 20 µM	0.016 µM	> 20 µM	> 20 µM
COc1nc(N2C[C@H]3C(=O)N(C)C(=N)N[C@@]3(c3ccc(F)c(Cl)c3F)C2)nc(C)c1F (racemic) [39 racemic]	0.04 µM	> 20 µM	> 20 µM	221	3%	61%	> 20 µM	> 20 µM	0.0092 µM	> 20 µM	> 20 µM
COc1nc(N2C[C@H]3C(=O)N(C)C(=N)N[C@@]3(c3ccc(F)cc3F)C2)nc(C2CC2)c1Cl [Example 19]	0.117 µM	> 20 µM	> 20 µM	236	3%	20%	> 20 µM	> 20 µM	0.0068 µM	> 20 µM	> 20 µM
COc1nc(N2C[C@H]3C(=O)N(C)C(=N)N[C@@]3(c3cccc(Cl)c3)C2)nc(C)c1F [Example 33]	0.176 µM			43					0.039 µM		
COc1nc(N2C[C@H]3C(=O)N(C)C(N)=N[C@@]3(c3c(F)ccc(F)c3F)C2)nc(C)c1F [Example 40]		> 20 µM	> 20 µM		15%	81%	> 20 µM	> 20 µM		> 20 µM	> 20 µM
COc1nc(N2C[C@H]3C(=O)N(C)C(=N)N[C@@]3(c3ccc(F)cc3F)C2)nc(OC)c1F [Example 10]	0.0075 µM	> 30 µM	> 30 µM	583	7%	74%	> 30 µM	> 30 µM	0.0018 µM	> 30 µM	~30 µM
COc1nc(N2C[C@H]3C(=O)N(C)C(=N)N[C@@]3(c3cc(F)ccc3Cl)C2)nc(C)c1F [Example 2]		> 20 µM	> 20 µM	162	8%	50%	> 20 µM	> 20 µM		> 20 µM	> 20 µM
COc1nc(N2C[C@H]3C(=O)N(C)C(=N)N[C@@]3(c3ccc(F)cc3F)C2)nc(C(C)(F)F)c1F [Example 42]									0.011 µM		
COc1nc(N2C[C@H]3C(=O)N(C)C(=N)N[C@@]3(c3ccc(F)cc3Cl)C2)nc(C)c1F [Example 20]	0.0095 µM	8.3 µM	> 20 µM	106	29%	93%	8.9 µM	7.5 µM	0.0045 µM	> 20 µM	> 20 µM
CCc1nc(N2C[C@H]3C(=O)N(C)C(=N)N[C@@]3(c3cc(F)c(F)cc3F)C2)nc(OC)c1F [Example 22]	0.018 µM	> 20 µM	> 20 µM	53	35%	96%	> 20 µM	~20 µM	0.0056 µM	> 20 µM	> 20 µM
COc1nc(N2C[C@H]3C(=O)N(C)C(=N)N[C@@]3(c3ccc(F)cc3)C2)nc(C2CC2)c1F [Example 21]	0.05 µM	> 20 µM	> 20 µM	50	7%	73%	> 20 µM	> 20 µM	0.0048 µM	10.1 µM	13.7 µM
CCc1nc(N2C[C@H]3C(=O)N(C)C(N)=N[C@@]3(c3ccccc3)C2)nc(C)c1F (racemic) [5 racemic]	0.217 µM	> 30 µM	> 30 µM				> 30 µM	> 30 µM	0.061 µM	> 30 µM	~30 µM
